Measurements as given in patent US20210205225A1, “BIOAVAILABLE ORAL DOSAGE FORMS” (PTC Therapeutics, Inc., priority 2018, published 2021).
Values after ≈ are worked out from the molar mass of the structure shown.

Experiments:
[1] = Phase 1 single-dose lipid capsule PK and food effect study; assay type: in vivo, human
Excerpt: (§1) Compound 1 has been evaluated in a Phase 1, randomized, placebo-controlled, escalating, single-dose, safety, tolerability, PK, and food effect study in healthy adult volunteers. Compound 1 was provided in lipid-filled gelatin capsules. The primary objective of the study was to determine a dose range for Compound 1 that safely achieved pharmacologically active target plasma concentrations (as determined from xenograft studies) and that was appropriate for use in a subsequent multiple-dose study.
(§2) Subjects in the study were enrolled in 2 stages. In Stage 1, 40 subjects were accrued in 5 cohorts of 8 subjects with each cohort receiving a sequentially higher single dose of Compound 1 at dose levels of 0.03, 0.1, 0.3, 1, and 3 mg/kg. Within a cohort, 6 subjects (3 males and 3 females) received Compound 1 and 2 subjects (1 male and 1 female) received placebo. An additional 12 subjects (6 males and 6 females) were enrolled in Stage 2 to evaluate the effect of food on the PK of Compound 1.
(§3) During both Stages 1 and 2 of the study, data regarding adverse events, vital signs, blood counts, coagulation assessments, blood chemistry determinations, urinalyses, and ECGs were collected at baseline and repeatedly over 72 hours after administration of the study medication, and again at a follow-up visit 7 days after the last study treatment. In both Stages 1 and 2, blood samples for assessment of plasma Compound 1 concentrations were collected at multiple timepoints. Compound 1 concentrations were analyzed using LC-MS/MS, validated for human plasma. Blood for measurement of plasma DHODH levels are collected at multiple time points. Plasma DHODH concentrations are analyzed using a clinically validated ELISA (R&D Systems). Similarly, blood for measurement of plasma VEGF-A levels was collected at multiple time points. Plasma VEGF-A concentrations were analyzed using a clinically validated ELISA (R&D Systems).

[2] = Clinical BA/BE and food effect study, safety; assay type: in vivo, human
Method: (§4) Compound 1 was administered as a single-dose in Lipid Formulation capsules or as PVP SDI Formulation tablets. The primary objective of the study was to determine the comparative single-dose PK and safety profiles of Compound 1 administered in the 2 formulations. The study was also aimed to study of the food effect on the PK and safety profiles for the PVP SDI Formulation tablet.
(§5) Subjects in the study were enrolled in 3 stages. In Stage 1, 24 subjects were randomly accrued into 3 cohorts of 8 subjects receiving Compound 1 in both the Lipid Formulation capsule and the PVP SDI Formulation tablet at dose levels of 0.5 mg/kg, 1 mg/kg, and 2 mg/kg. In Stage 2, 24 subjects were accrued in 3 cohorts of 8 subjects with each cohort receiving a sequentially higher doses of Compound 1 in the PVP SDI Formulation tablet at dose levels of 400, 800, and 1600 mg. An additional 12 subjects (6 males and 6 females) were enrolled in Stage 3 to evaluate the effect of food on the PK of Compound 1 when administered at 400 mg and 1000 mg in the PVP SDI Formulation tablet.
(§6) During the study, data regarding adverse events, vital signs, blood counts, coagulation assessments, blood chemistry determinations, urinalyses, and ECGs were collected at baseline and repeatedly over 72 hours after administration of the study medication, and again at a follow-up visit 7 days after the last study treatment. Blood samples for assessment of plasma Compound 1 concentrations were collected at multiple timepoints. Compound 1 concentrations were analyzed using LC-MS/MS, validated for human plasma.

[3] = Clinical BA/BE and food effect study, PVP SDI Formulation tablets vs Lipid Formulation capsules, PK; assay type: in vivo, human
Method: The PVP SDI Formulation tablets prepared in Example 13 were compared to the Lipid Formulation capsules prepared in Example 7 in a clinical BA/BE (bioequivalence/bioavailability) study that evaluated the effect of food on the bioavailability of the PVP SDI Formulation tablets.
as §4, §5, §6

[4] = Phase 1 single-dose lipid capsule study, safety and tolerability; assay type: in vivo, human
Excerpt: as §1, §2, §3

[5] = Solubility of the SDI and a surfactant (5% w/w) in aqueous solution, saturated, RT; assay type: physicochemical
Method: Aqueous suspensions (5% w/w) of the crystalline Compound 1b and the amorphous SDI were prepared in saturated solutions with surfactants selected from SDS, Poloxamer 188, Poloxamer 407, Gelucire 44/14 and Gelucire 50/13.
The solution was not sufficiently translucent to determine when sufficient material was added to provide the saturated solution. As a result, the solution was allowed to stand so that the excess Gelucire settled, and the supernatant was recovered and used for the solubility study. The exact concentration of Gelucire 50/13 in the solution was unknown.

[6] = solid formulation, higher doses
[7] = saturated in 5% w/w Gelucire 44/14 aqueous solution, 0 hrs
[8] = saturated in 5% w/w Gelucire 44/14 aqueous solution, 24 hrs
[9] = saturated in 5% w/w Poloxamer 188 aqueous solution, 0 hrs
[10] = saturated in 5% w/w SDS aqueous solution, 0 hrs
[11] = saturated in 5% w/w SDS aqueous solution, 24 hrs
[12] = saturated in Gelucire 50/13 supernatant solution, 0 hrs
[13] = saturated in Gelucire 50/13 supernatant solution, 24 hrs

In the case of `COc1ccc([C@H]2c3[nH]c4ccc(Cl)cc4c3CCN2C(=O)Oc2ccc(Cl)cc2)cc1` [Compound 1, 4-chlorophenyl (S)-6-chloro-1-(4-methoxyphenyl)-1,3,4,9-tetrahydro-2H-pyrido[3,4-b]indole-2-carboxylate], the “increases in mean Cmax values with dose” value ([1]; Stage 1, 0.03-3 mg/kg) is reported as “generally dose proportional”, the “increase of mean Cmax by high-fat, high-calorie meal” value ([1]; Stage 2, 1 mg/kg) is reported as “about 40%” and the Tmax ([1]; both sexes, human, plasma, oral, lipid capsules, single dose) is reported as 3 to 6 h. The half-life ([1]; both sexes, human, plasma, oral, lipid capsules, single dose, read-out: terminal half-life (t1/2β)) was 28 to 56 h, the “low concentrations still evident in plasma” value ([1]; lipid capsules, 3.0-mg/kg dose) was ≥ 168 h and the “persistence of concentrations in plasma” value ([1]; lipid capsules, doses 0.30 mg/kg) was ≥ 72 h. The “mean Cmax after a high-fat, high-calorie meal” value ([1]; lipid capsules, fed vs fasted) was “increased”, the “lag time to appearance in plasma” value ([1]; lipid-filled gelatin capsules, single dose) was “about 30 minutes” and the “laboratory abnormality in 1 subject” value ([2]; Stage 1, 2 mg/kg in the Lipid Capsule Formulation, considered unlikely to be drug related) was “Grade 3 elevation of serum creatine kinase”. The “physical examinations, vital sign measurements, ECGs” value ([2]; all 3 stages) was “no safety concerns”, the “deaths or serious adverse events” value ([2]; human, in vivo) was “No deaths or serious adverse events” and the tolerability ([2]; single dose, lipid capsules or PVP SDI tablets) was “generally well tolerated”. For the same compound, the “mean Cmax after a high-fat, high-calorie meal” value ([3]; PVP SDI Formulation tablet, fed vs fasted) was “increased”, the “increase of mean Cmax and AUC by high-fat, high-calorie meal” value ([3]; Stage 3, 400 mg or 1000 mg, PVP SDI Formulation tablet) was “about 100%” and the half-life ([3]; human, plasma, oral, PVP SDI Formulation tablet, Stage 2) was 38 to 65 h. For the same compound, the Tmax ([3]; human, plasma, oral, single dose) was 3 to 7 h, the “concentrations still evident in plasma” value [3, 6] was ≥ 168 h and the “lag time to appearance in plasma” value [3, 6] was “about 30 minutes”. For the same compound, the “persistence of concentrations in plasma” value [3, 6] was ≥ 72 h, the “treatment-emergent adverse event: nausea, subjects receiving Compound 1” value ([4]; Stage 1) was 4 subjects and the “treatment-emergent adverse event: headache” value ([4]; Stage 1, 40 subjects dosed) was 9 episodes in 8 subjects. For the same compound, the “adverse event: back pain” value ([4]; Stage 2) was 2 episodes in 2 subjects, the “adverse event: headaches” value ([4]; Stage 2) was 3 episodes in 3 subjects and the “severity of adverse events” value ([4]; all except 1 case of Grade 2 diarrhea at 1 mg/kg fasted, Stage 2) was “Grade 1”. The “hematology, coagulation, chemistry parameters” value ([4]; both stages) was “No clinically significant changes”, the “physical examinations, vital sign measurements, ECGs” value ([4]; both stages) was “no safety concerns” and the “deaths or serious adverse events” value ([4]; in vivo) was “No deaths or serious adverse events”. For the same compound, the tolerability ([4]; single dose, lipid capsules) was “generally well tolerated”.
With `COc1ccc([C@H]2c3[nH]c4ccc(Cl)cc4c3CCN2C(=O)Oc2ccc(Cl)cc2)cc1` [Compound 1b] the Solubility [5, 7] was 14.7 µg/mL (≈ 31.5 µM), the Solubility [5, 8] was 23.6 µg/mL (≈ 50.5 µM) and the Solubility [5, 9] was 0.2 µg/mL (≈ 0.428 µM). It also gave a Solubility [5, 10] of 2.4 µg/mL (≈ 5.14 µM), a Solubility [5, 11] of 6.2 µg/mL (≈ 13.3 µM) and a Solubility [5, 12] of 7.8 µg/mL (≈ 16.7 µM). For the same compound, the Solubility [5, 13] was 23.0 µg/mL (≈ 49.2 µM).
Work on `COc1ccc([C@H]2c3[nH]c4ccc(Cl)cc4c3CCN2C(=O)Oc2ccc(Cl)cc2)cc1` [Sample 2] yielded a solubility at 24 h ([5]; 5% w/w Poloxamer 188 aqueous solution, aqueous with cosolvent or surfactant or cyclodextrin, thermodynamic from solid, saturated in 5% w/w Poloxamer 188 aqueous solution, 24 hrs) of 4.3 µg/mL (≈ 9.2 µM), a Solubility [5, 7] of 142.5 µg/mL (≈ 305 µM) and a Solubility [5, 8] of 58.4 µg/mL (≈ 125 µM). It also gave a Solubility [5, 9] of 0.7 µg/mL (≈ 1.5 µM), a Solubility [5, 10] of 224.7 µg/mL (≈ 481 µM) and a Solubility [5, 11] of 32.4 µg/mL (≈ 69.3 µM). It also gave a Solubility [5, 12] of 677.4 µg/mL (≈ 1450 µM) and a Solubility [5, 13] of 371.5 µg/mL (≈ 795 µM).
